Test results: patent US20030087906A1, “NITROGEN SUBSTITUTED BIARYL PURINE DERIVATIVES AS POTENT ANTIPROLIFERATIVE AGENTS” (priority 2001, published 2003)
Several values for one entry are separate records, joined by “and”; a condition that tells them apart may be missing. Equal entries are not always repeated.

System: HeLa S-3 cells
Experiment: Inhibition of cell growth of HeLa cells (SRB)
Format: cell-based, human
Settings: 2 days of treatment, replicate experiments
Method: Growth inhibition (GI50) values were measured with HeLa S-3 cells selected for growth on plastic. […] One day later, a control plate was fixed by addition of TCA to 5%. After five rinses with tap water the plate was air dried and stored at 4° C. Test compounds were added to the remaining plates at 10-fold dilutions between 0.01 and 100 μM. Two days later all plates were fixed as described above. Cells were then stained by the addition of 100 μl per well of 0.4% sulforhodamine B (SRB) in 1% acetic acid for 30 min at 4° C. Wells were then quickly rinsed 5×with acetic acid (1%) and allowed to air dry. The SRB was then solubilized by the addition of 100 μl per well of unbuffered 10 mM Tris base. Dye was quantified by measuring absorbance at 490 nm on a Molecular Devices kinetic microplate reader. Growth at each inhibitor concentration relative to the untreated control was calculated according to the following equation: percent growth=100×(T−To)/(C−To), where T was the average optical density (OD) of the test wells after 2 days of treatment, To was the average OD of the wells in the control plate on day 0 and C was the average OD of untreated wells. Plots of percent growth versus inhibitor concentration were used to determine the GI50.

## CC(=O)N[C@H]1CC[C@H](Nc2nc(NCc3ccc(-c4ccco4)cc3)c3ncn(C(C)C)c3n2)CC1 [Compound 182]
Homo sapiens, HeLa S3, 48 h
  GI50: 300 nM

## CC(C)n1cnc2c(NCc3ccc(-c4cccc(F)c4)nc3)nc(N[C@H]3CC[C@H](N)CC3)nc21 [Compound 187]
  GI50: 30 nM
Homo sapiens, HeLa S3, 48 h
  GI50: 50 nM

## CC(=O)N[C@H]1CC[C@H](Nc2nc(NCc3ccc(-c4cccc(F)c4)nc3)c3ncn(C(C)C)c3n2)CC1 [Compound 188]
  GI50: 200 nM and 70 nM

## CC(C)n1cnc2c(NCc3ccc(-c4cccs4)nc3)nc(N[C@H]3CC[C@H](N)CC3)nc21 [Compound 199]
  GI50: 200 nM and 90 nM

## CC(=O)N[C@H]1CC[C@H](Nc2nc(NCc3ccc(-c4ccco4)nc3)c3ncn(C(C)C)c3n2)CC1 [Compound 206]
  GI50: 200 nM

## CCCNCCNc1nc(NCc2ccc(-c3ccccc3)cc2)c2ncn(C(C)C)c2n1 [Compound 209]
Homo sapiens, HeLa S3, 48 h
  GI50: 2000 nM

## CCCN(CCC)CCNc1nc(NCc2ccc(-c3ccccc3)cc2)c2ncn(C(C)C)c2n1 [Compound 210]
Homo sapiens, HeLa S3, 48 h
  GI50: 3000 nM

## CC(=O)NCCCCNc1nc(NCc2ccc(-c3ccccc3)cc2)c2ncn(C(C)C)c2n1 [Compound 214]
Homo sapiens, HeLa S3, 48 h
  GI50: 5000 nM

## CCCNCCCCNc1nc(NCc2ccc(-c3ccccc3)cc2)c2ncn(C(C)C)c2n1 [Compound 215]
Homo sapiens, HeLa S3, 48 h
  GI50: 2000 nM

## CC(C)n1cnc2c(NCc3ccc(-c4cccc(F)c4)nc3)nc(N[C@H]3CC[C@H](NC(=O)[C@H](C)NC(=O)OC(C)(C)C)CC3)nc21 [Compound 230]
Homo sapiens, HeLa S3, 48 h
  GI50: 300 nM

## CC(C)n1cnc2c(NCc3ccc(-c4cccc(F)c4)nc3)nc(N[C@H]3CC[C@H](NC(=O)[C@H](C)N)CC3)nc21 [Compound 231]
Homo sapiens, HeLa S3, 48 h
  GI50: 40 nM

## CC(C)n1cnc2c(NCc3ccc(-c4cccc(F)c4)nc3)nc(N[C@H]3CC[C@H](NC(=O)CNC(=O)OC(C)(C)C)CC3)nc21 [Compound 232]
Homo sapiens, HeLa S3, 48 h
  GI50: 300 nM

## CC(C)n1cnc2c(NCc3ccc(-c4cccc(F)c4)nc3)nc(N[C@H]3CC[C@H](NC(=O)CN)CC3)nc21 [Compound 233]
Homo sapiens, HeLa S3, 48 h
  GI50: 500 nM

## CC(C)n1cnc2c(NCCc3ccc(-c4ccccc4)cc3)nc(N[C@H]3CC[C@H](N)CC3)nc21 [Compound 239]
Homo sapiens, HeLa S3, 48 h
  GI50: 6000 nM

## CC(=O)N[C@H]1CC[C@H](Nc2nc(NCCc3ccc(-c4ccccc4)cc3)c3ncn(C(C)C)c3n2)CC1 [Compound 240]
  GI50: 8000 nM

## CC(C)n1cnc2c(NCCc3ccc(-c4ccsc4)cc3)nc(N[C@H]3CC[C@H](NC(=O)OC(C)(C)C)CC3)nc21 [Compound 242]
  GI50: > 10000 nM

## CC(=O)N[C@H]1CC[C@H](Nc2nc(NCCOc3ccc(-c4ccccc4)cc3)c3ncn(C(C)C)c3n2)CC1 [Compound 249]
Homo sapiens, HeLa S3, 48 h
  GI50: > 10000 nM

## CCCN[C@H]1CC[C@H](Nc2nc(NCCOc3ccc(-c4ccccc4)cc3)c3ncn(C(C)C)c3n2)CC1 [Compound 250]
  GI50: 6000 nM

## CC(Nc1nc(N[C@H]2CC[C@H](N)CC2)nc2c1ncn2C(C)C)c1ccc(-c2ccsc2)cc1 (stereo partly shown) [Compound 257]
Homo sapiens, HeLa S3, 48 h
  GI50: 3000 nM

## COC(=O)N[C@H]1CC[C@H](Nc2nc(NCc3ccc(-c4ccccc4)cc3)c3ncn(C(C)C)c3n2)CC1 [Compound 259]
  GI50: 300 nM and 700 nM

## CC(C)n1cnc2c(NCc3ccc(-c4ccccc4)cc3)nc(N[C@H]3CC[C@H](NC(=O)C4CC4)CC3)nc21 [Compound 261]
  GI50: 300 nM

## CC(C)n1cnc2c(NCc3ccc(-c4ccccc4)cc3)nc(N[C@H]3CC[C@H](N4C(=O)CCC4=O)CC3)nc21 [Compound 262]
  GI50: 300 nM and 200 nM and 500 nM

## CC(C)n1cnc2c(NCc3ccc(-c4ccc(Cl)s4)cc3)nc(N[C@H]3CC[C@H](N)CC3)nc21 [Compound 264]
  GI50: 500 nM
Homo sapiens, HeLa S3, 48 h
  GI50: 300 nM

## CC(=O)N[C@H]1CC[C@H](Nc2nc(NCc3ccc(-c4ccc(Cl)s4)cc3)c3ncn(C(C)C)c3n2)CC1 [Compound 265]
Homo sapiens, HeLa S3, 48 h
  GI50: 300 nM

## CCN(C(C)=O)[C@H]1CC[C@H](Nc2nc(NCc3ccc(-c4ccccc4)cc3)c3ncn(C(C)C)c3n2)CC1 [Compound 267]
  GI50: 800 nM and 600 nM

## CN1CC[C@H](c2c(O)cc(O)c3c(=O)cc(-c4ccccc4Cl)oc23)[C@H](O)C1 [Flavopiridol, reference compound]
Homo sapiens, HeLa S3, 48 h
  GI50: 180 nM
